Measured values reported in US9562899B2, “Method of detecting OXA-048 carbapenemase producing bacteria” (BIOMÉRIEUX, priority 2012, dated 2017).

How the values were obtained:
Experiment in all cases: Temocillin MIC with EDTA in the medium (Example 2)
Format in all cases: cell-based, Enterobacteriaceae
Conditions in all cases: Ex 2, MIC in mg/l
[1] = tested on: AmpC strains
Excerpt: (§1) Optimization of the Detection Specificity by Introducing Specific Inhibitors Inhibition of Class B Strains (NDM, VIM, IMP) by Adding EDTA
(§2) Identical to that used to determine the temocillin MICs by agar dilution (example 1).
(§3) For each temocillin concentration, the following concentrations of active EDTA will be tested in the form of disodium EDTA: 0, 1.77, 2.12, 2.47 and 2.83 mmol/l.
(§4) Method: identical to the method used in example 1.

[2] = tested on: IMP strains
Excerpt: as §1, §2, §3, §4

[3] = tested on: BLSE strains
Excerpt: as §1, §2, §3, §4

`CO[C@@]1(NC(=O)C(C(=O)O)c2ccsc2)C(=O)N2[C@@H](C(=O)O)C(C)(C)S[C@@H]21` (stereo partly drawn) [temocillin] was tested, and the “No. of AmpC strains with MIC >300” value ([1]; 2.47 mmol/l of active EDTA) was 0, the “No. of AmpC strains with MIC ≦50” value ([1]; 2.47 mmol/l of active EDTA) was 10 and the “No. of AmpC strains with MIC 150” value ([1]; 2.83 mmol/l of active EDTA) was 0. The “No. of AmpC strains with MIC 200” value ([1]; 2.83 mmol/l of active EDTA) was 0, the “No. of AmpC strains with MIC 300” value ([1]; 2.83 mmol/l of active EDTA) was 0 and the “No. of AmpC strains with MIC >300” value ([1]; 2.83 mmol/l of active EDTA) was 0. For the same molecule, the “No. of AmpC strains with MIC ≦50” value ([1]; 2.83 mmol/l of active EDTA) was 10, the “No. of IMP strains with MIC 150” value ([2]; 0 mmol/l of EDTA) was 0 and the “No. of IMP strains with MIC 200” value ([2]; 0 mmol/l of EDTA) was 0. For the same molecule, the “No. of IMP strains with MIC 300” value ([2]; 0 mmol/l of EDTA) was 0, the “No. of IMP strains with MIC >300” value ([2]; 0 mmol/l of EDTA) was 1 and the “No. of IMP strains with MIC ≦50” value ([2]; 0 mmol/l of EDTA) was 12. The “No. of IMP strains with MIC 150” value ([2]; 1.77 mmol/l of active EDTA) was 0, the “No. of IMP strains with MIC 200” value ([2]; 1.77 mmol/l of active EDTA) was 0 and the “No. of IMP strains with MIC 300” value ([2]; 1.77 mmol/l of active EDTA) was 0. For the same molecule, the “No. of IMP strains with MIC >300” value ([2]; 1.77 mmol/l of active EDTA) was 1, the “No. of IMP strains with MIC ≦50” value ([2]; 1.77 mmol/l of active EDTA) was 12 and the “No. of IMP strains with MIC 150” value ([2]; 2.12 mmol/l of active EDTA) was 0. For the same molecule, the “No. of IMP strains with MIC 200” value ([2]; 2.12 mmol/l of active EDTA) was 0, the “No. of IMP strains with MIC 300” value ([2]; 2.12 mmol/l of active EDTA) was 0 and the “No. of IMP strains with MIC >300” value ([2]; 2.12 mmol/l of active EDTA) was 1. For the same molecule, the “No. of IMP strains with MIC ≦50” value ([2]; 2.12 mmol/l of active EDTA) was 12, the “No. of IMP strains with MIC 150” value ([2]; 2.47 mmol/l of active EDTA) was 0 and the “No. of IMP strains with MIC 200” value ([2]; 2.47 mmol/l of active EDTA) was 0. The “No. of IMP strains with MIC 300” value ([2]; 2.47 mmol/l of active EDTA) was 0, the “No. of IMP strains with MIC >300” value ([2]; 2.47 mmol/l of active EDTA) was 1 and the “No. of IMP strains with MIC ≦50” value ([2]; 2.47 mmol/l of active EDTA) was 12. The “No. of IMP strains with MIC 150” value ([2]; 2.83 mmol/l of active EDTA) was 0, the “No. of IMP strains with MIC 200” value ([2]; 2.83 mmol/l of active EDTA) was 0 and the “No. of IMP strains with MIC 300” value ([2]; 2.83 mmol/l of active EDTA) was 0. For the same molecule, the “No. of IMP strains with MIC >300” value ([2]; 2.83 mmol/l of active EDTA) was 1, the “No. of IMP strains with MIC ≦50” value ([2]; 2.83 mmol/l of active EDTA) was 12 and the “No. of BLSE strains with MIC 150” value ([3]; 0 mmol/l of EDTA) was 0. For the same molecule, the “No. of BLSE strains with MIC 200” value ([3]; 0 mmol/l of EDTA) was 0, the “No. of BLSE strains with MIC 300” value ([3]; 0 mmol/l of EDTA) was 0 and the “No. of BLSE strains with MIC >300” value ([3]; 0 mmol/l of EDTA) was 0. The “No. of BLSE strains with MIC ≦50” value ([3]; 0 mmol/l of EDTA) was 10, the “No. of BLSE strains with MIC 150” value ([3]; 1.77 mmol/l of active EDTA) was 0 and the “No. of BLSE strains with MIC 200” value ([3]; 1.77 mmol/l of active EDTA) was 0. For the same molecule, the “No. of BLSE strains with MIC 300” value ([3]; 1.77 mmol/l of active EDTA) was 0, the “No. of BLSE strains with MIC >300” value ([3]; 1.77 mmol/l of active EDTA) was 0 and the “No. of BLSE strains with MIC ≦50” value ([3]; 1.77 mmol/l of active EDTA) was 10. The “No. of BLSE strains with MIC 150” value ([3]; 2.12 mmol/l of active EDTA) was 1, the “No. of BLSE strains with MIC 200” value ([3]; 2.12 mmol/l of active EDTA) was 0 and the “No. of BLSE strains with MIC 300” value ([3]; 2.12 mmol/l of active EDTA) was 0. The “No. of BLSE strains with MIC >300” value ([3]; 2.12 mmol/l of active EDTA) was 0, the “No. of BLSE strains with MIC ≦50” value ([3]; 2.12 mmol/l of active EDTA) was 9 and the “No. of BLSE strains with MIC 150” value ([3]; 2.47 mmol/l of active EDTA) was 0. For the same molecule, the “No. of BLSE strains with MIC 200” value ([3]; 2.47 mmol/l of active EDTA) was 0, the “No. of BLSE strains with MIC 300” value ([3]; 2.47 mmol/l of active EDTA) was 0 and the “No. of BLSE strains with MIC >300” value ([3]; 2.47 mmol/l of active EDTA) was 0. For the same molecule, the “No. of BLSE strains with MIC ≦50” value ([3]; 2.47 mmol/l of active EDTA) was 10, the “No. of BLSE strains with MIC 150” value ([3]; 2.83 mmol/l of active EDTA) was 0 and the “No. of BLSE strains with MIC 200” value ([3]; 2.83 mmol/l of active EDTA) was 0. The “No. of BLSE strains with MIC 300” value ([3]; 2.83 mmol/l of active EDTA) was 0, the “No. of BLSE strains with MIC >300” value ([3]; 2.83 mmol/l of active EDTA) was 0 and the “No. of BLSE strains with MIC ≦50” value ([3]; 2.83 mmol/l of active EDTA) was 10.
